Assay results: patent US20210115104A1, “AMYLIN ANALOGUES” (Zealand Pharma A/S, priority 2015, published 2021)
*1 amine or outer side, *2 acyl side, *3 side chain or, on linkers, in order; H or OH if unused. Where a SMILES comes first, the peptide text is derived from it. Bridges are numbered along the chain shown (N, C = ends). [ ]: non-standard residue; d: D form. The star is where a group is joined. C20 diacid = O=C(O)CCCCCCCCCCCCCCCCCCC(=O)*; γGlu = O=C(O)[C@H](CCC(=O)[*:2])N[*:1]; Hyp = O=C(O)[C@@H]1C[C@@H](O)CN1; NMeI = CC[C@H](C)[C@H](NC)C(=O)O; Aad = N[C@@H](CCCC(=O)O)C(=O)O; Sar = CNCC(=O)O

Target: T1, human calcitonin receptor (hCTR2) (Homo sapiens, UniProt P30988)
T1 construct: expressed in transfected cells
T1 sequence (P30988 25-474): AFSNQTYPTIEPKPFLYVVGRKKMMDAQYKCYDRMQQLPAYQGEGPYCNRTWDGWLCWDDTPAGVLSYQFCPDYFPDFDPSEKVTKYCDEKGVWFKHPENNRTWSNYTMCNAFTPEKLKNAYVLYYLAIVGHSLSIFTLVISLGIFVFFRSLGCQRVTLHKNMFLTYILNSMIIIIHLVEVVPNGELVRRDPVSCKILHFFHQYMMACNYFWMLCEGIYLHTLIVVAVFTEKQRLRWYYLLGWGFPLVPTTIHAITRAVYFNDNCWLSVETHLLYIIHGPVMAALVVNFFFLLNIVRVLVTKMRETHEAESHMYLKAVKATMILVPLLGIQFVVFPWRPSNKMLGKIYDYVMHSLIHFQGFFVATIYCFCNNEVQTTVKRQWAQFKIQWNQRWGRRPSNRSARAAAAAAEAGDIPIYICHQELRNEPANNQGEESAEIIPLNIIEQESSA
Assay: hCTR2 cAMP assay (AlphaScreen) in COS7 cells
Type: cell-based
Settings: cAMP induction, COS7 cells expressing hCTR2; Table 1; read-out: hCTR2 EC50
Source text: The cell line COS7, originating from African Green Monkey kidney fibroblast cells, was used for establishment of the stable cell lines described below. The COS7 cellular background was used due to it being RAMP naïve, and as such it provides the best available system for testing of the monomeric hCTR and different heterodimeric amylin receptor subtypes functionally generated by introduction of the individual RAMPs.
A cell line expressing the human calcitonin receptor (hCTR2) was generated in the COS7 cellular background as stable clones. In brief, hCTR2 (GI: 4502547) was amplified by PCR using primers encoding terminal restriction sites for subcloning. The 5′-end primers additionally encoded a near Kozak consensus sequence to ensure efficient translation. The fidelity of the DNA encoding the receptor was confirmed by DNA sequencing. The PCR products encoding the receptor were subcloned into a mammalian expression vector containing a neomycin (G418) resistance marker. The mammalian expression vector encoding the receptor was transfected into COS7 cells by a standard liposome transfection method. 48 hours post-transfection, cells were seeded for limited dilution cloning and selected with 1 mg/ml G418 in the culture medium. After 3 weeks, surviving colonies of hCTR2-expressing cells were picked, propagated and tested in the amylin efficacy assay as described in Example 3 below. One hCTR2-expressing clone was chosen for compound profiling.
In vitro activity of test peptides at the hCTR2 and hAMYR3 receptors was assessed by measuring the induction of cAMP following stimulation of the receptor using the AlphaScreen® cAMP Assay kit from Perkin-Elmer.
Briefly, COS7 cells expressing hCTR2 (see Example 2, above) were seeded at 30-40,000 cells per well in 96-well microtiter plates coated with 0.01% poly-L-lysine, and grown for 1 day in culture in 100 μl growth medium [DMEM, 10% FCS, Penicillin (100 IU/ml), Streptomycin (100 μg/ml)]. On the day of analysis, growth medium was removed and the cells were washed once with 200 μl Tyrode buffer [Tyrode's Salts (9.6 g/I), 10 mM HEPES, pH 7.4]. Cells were incubated in 100 μl Tyrode buffer containing increasing concentrations of test peptides, 100 µM IBMX and 0.1% casein for 15 min at 37° C. The reaction was stopped by carefully decanting off the compound/buffer medium and replacing it with lysis/detection buffer (80 μl 0.1% w/v BSA, 5 mM HEPES, 0.3% v/v Tween-20 in deionized water). After incubation at room temperature for 10 min., the cAMP content of the resulting cell lysate was estimated according to the AlphaScreen® cAMP Assay manufacturer's instructions. EC50 values were estimated by computer-aided curve fitting using the 4-parameter logistic (4PL) non-linear model.

Row | EC50 [nM] | Structure (SMILES)
1 | 0.58 | CC[C@H](C)[C@@H](C(=O)N[C@@H](CC(C)C)C(=O)N[C@@H](CO)C(=O)N[C@@H](CO)C(=O)N[C@H](C(=O)N[C@@H](CCC(=O)O)C(=O)N[C@H](C(=O)NCC(=O)N[C@@H](CO)C(=O)N[C@H](C(=O)N[C@H](C(=O)N1C[C@H](O)C[C@H]1C(N)=O)[C@@H](C)O)[C@@H](C)O)C(C)C)[C@@H](C)O)N(C)C(=O)[C@H](C)NC(=O)CN(C)C(=O)[C@H](Cc1ccccc1)NC(=O)[C@H](CO)NC(=O)[C@H](CO)NC(=O)[C@H](CCCNC(=N)N)NC(=O)[C@H](CCC(N)=O)NC(=O)[C@H](CC(C)C)NC(=O)[C@H](Cc1ccccc1)NC(=O)[C@H](Cc1c[nH]cn1)NC(=O)[C@H](C)NC(=O)[C@H](CC(C)C)NC(=O)[C@H](CCCNC(=N)N)NC(=O)[C@H](CCC(=O)O)NC(=O)[C@@H](NC(=O)[C@H](C)NC(=O)[C@@H]1CSSC[C@H](NC(=O)[C@H](CCCNC(=N)N)NC(=O)CC[C@H](NC(=O)CCCCCCCCCCCCCCCCCCC(=O)O)C(=O)O)C(=O)N2CCC[C@H]2C(=O)N[C@@H]([C@@H](C)O)C(=O)N[C@@H](C)C(=O)N[C@@H]([C@@H](C)O)C(=O)N1)[C@@H](C)O [Compound 74, [19CD]-isoGlu-R-C( )-PTAT-C( )-ATERLAHFLQRSSF-Gly(Me)-A-Ile(Me)-LSSTEVGSTT-Hyp-NH2] ({C20 diacid-γGlu}-RCPTATCATERLAHFLQRSSF[Sar]A[NMeI]LSSTEVGSTT[Hyp]-NH2; disulfide 2-7)
2 | 0.44 | CC[C@H](C)[C@@H](C(=O)N[C@@H](CC(C)C)C(=O)N[C@@H](CO)C(=O)N[C@@H](CO)C(=O)N[C@H](C(=O)N[C@@H](CCC(=O)O)C(=O)N[C@H](C(=O)NCC(=O)N[C@@H](CO)C(=O)N[C@@H](CCCC(=O)O)C(=O)N[C@H](C(=O)N1C[C@H](O)C[C@H]1C(N)=O)[C@@H](C)O)C(C)C)[C@@H](C)O)N(C)C(=O)[C@H](C)NC(=O)CN(C)C(=O)[C@H](Cc1ccccc1)NC(=O)[C@H](CO)NC(=O)[C@H](CO)NC(=O)[C@H](CCCNC(=N)N)NC(=O)[C@H](CCC(N)=O)NC(=O)[C@H](CC(C)C)NC(=O)[C@H](Cc1ccccc1)NC(=O)[C@H](Cc1c[nH]cn1)NC(=O)[C@H](C)NC(=O)[C@H](CC(C)C)NC(=O)[C@H](CCCNC(=N)N)NC(=O)[C@H](CCC(=O)O)NC(=O)[C@@H](NC(=O)[C@H](C)NC(=O)[C@@H]1CSSC[C@H](NC(=O)[C@H](CCCNC(=N)N)NC(=O)CC[C@H](NC(=O)CCCCCCCCCCCCCCCCCCC(=O)O)C(=O)O)C(=O)N2CCC[C@H]2C(=O)N[C@@H]([C@@H](C)O)C(=O)N[C@@H](C)C(=O)N[C@@H]([C@@H](C)O)C(=O)N1)[C@@H](C)O [Compound 76, [19CD]-isoGlu-R-C( )-PTAT-C( )-ATERLAHFLQRSSF-Gly(Me)-A-Ile(Me)-LSSTEVGS-Aad-T-Hyp-NH2] ({C20 diacid-γGlu}-RCPTATCATERLAHFLQRSSF[Sar]A[NMeI]LSSTEVGS[Aad]T[Hyp]-NH2; disulfide 2-7)
